Data as given in paper PMC12728982, “Multichiral Half-Sandwich Ru(II) and Os(II) Anticancer Complexes Containing a Glutathione Synthesis Inhibitor” (Organometallics, 2025).

Assays:
[1] = tested on: IGROV-1 human ovarian cancer cells; test: Cell cycle arrest by flow cytometry (PI); format: cell-based; details: IGROV-1, 100 μM, 24 h treatment, vs untreated
Protocol: 2 Effect of Os/Ru-LBSO and glycine complexes at 50 or 100 μM on the phases of the cell cycle of IGROV-1 human ovarian cancer cells compared with untreated (control) cells. Percentage of cells in G1 (black bar, cell growth), S (gray, DNA synthesis), G2/M, (white, growth/mitosis) as determined by flow cytometry after 24 h treatment with complexes. […] Standard deviations calculated for N = 3 *p-value <0.05 comparing to untreated sample.
2.8 Mammalian cell culture
The human ovarian cancer cell line, IGROV-1; the human cervical cancer cell line, HeLa; the human […]; and the human non-cancerous lung fibroblast cell line, MRC5 were cultured in DMEM supplemented with 10% FBS and 100 units/mL of penicillin and 100 µg/mL of streptomycin (1x pen/strep). All cell lines were incubated at 310 K with 5% CO2 and 95% humidity for routine maintenance and during drug treatment. […]
IGROV-1 cells (1 x 10^6 cells per well) were seeded in a 6-well plate and incubated for 24 h at 310 K. Stock solutions (200 µM) of the complexes were prepared by dissolving the compound in 5% (v/v) DMSO followed by dilution with DMEM and then diluted to desired concentrations. All complexes (50 µM and 100 µM) were added to the wells and incubated for 24 h. Cell pellets were collected using 0.25% trypsin and centrifuged (500 x g, 5 mins at 4 °C). Then washed in PBS and fixed with 100% ice-cold ethanol for 20 min on ice. The ethanol […]
(§1) was aspirated, cells washed in ice-cold PBS and then stained with 0.2 mg/mL RNase, 0.05 mg/mL propidium iodide (PI) in PBS for 25 min in the dark and on ice. Excess dye was removed, and cells were re-suspended in PBS. Samples were analysed by flow cytometry using the BD

[2] = tested on: IGROV-1 human ovarian cancer cells; test: Apoptosis assay, annexin V and PI, flow cytometry; format: cell-based; details: IGROV-1, 50 or 100 μM, 24 h
Protocol: Apoptosis assays using annexin V and PI as markers were carried out to investigate possible modes of cell death. For the clinical drug cisplatin, apoptosis is the major mode of cell death. […] Other mechanisms of cell death such as ferroptosis could be investigated in future work. […]
as §1, with “BD FACSMelody™ Cell Sorter (R653880001) and data analysis on FlowJo™ v10 Software (BD Life […]” for “BD”
IGROV-1 cells (1 x 106) were seeded in a 6-well plate and incubated for 24 h at 310 K. Stock solutions (200 µM) of the complexes were prepared by dissolving the compound in 5% (v/v) DMSO followed by dilution with DMEM and then diluted to desired concentrations. All complexes (50 µM and 100 µM) were added to the wells and incubated for 24 h. […] Samples were analysed by flow cytometry using the BD FACSMelody™ Cell Sorter (R653880001) and data analysis on FlowJo™ v10 Software (BD Life Sciences).9 […]
(§2) Percentage of IGROV -1 cancer cells in non -apoptotic, apoptotic (early and late) or necrotic phases determined by flow cytometry after 24 h treatment with Os/Ru L -BSO and glycine complexes. […] Standard deviations calculated for N=3. […]

[3] = tested on: intracellular GSH in IGROV-1 cells; test: Glutathione colorimetric detection assay; format: cell-based, human; details: IGROV-1, 50 μM, 24 h; statistical significance not confirmed
Protocol: This lowering was not observed for Ru-LBSO which is not active in this cell line. Other papers have shown a similar result by including L-BSO as an additional agent, therefore showing L-BSO remains inhibitory.
Once the agarose had set , the slides were submerged in alkaline lysis solution (1.3 M NaCl, 100 mM Na2EDTA, 0.1% sodium lauryl sarcosinate, 0.26 M NaOH pH > 13) and incubated overnight at 277 K in the dark. The following day the slides were rinsed for 20 min three times in the electrophoresis solution ([…] NaOH, 2mM Na 2EDTA pH 12.3). The slides were then placed into the electrophoresis tank with fresh electrophoresis buffer, 1 -2 mm above the slides. Electrophoresis was run at 18.3 V for 25 min. Once electrophoresis was complete, slides were rinsed in distilled water and placed in 2.5 µg/mL PI for 20 min. After staining, cells were rinsed in distilled water to remove excess stain. Twenty comet images per sample were taken by confocal microscopy and analysed by OpenComet. 10
1 x 10^6 IGROV-1 cells were seeded in a 6-well plate and incubated for 24 h at 310 K. All complexes (50 µM and 100 µM) were added to the wells and incubated for 24 h. […]
as §2

[4] = Aqueous stability / hydrolysis monitored by 1H NMR; format: physicochemical; details: 3:7 v/v methanol-d4:D2O, 310 K, 36 h, then excess NaCl (130 mM) 24 h

For [(p-cymene)Os(L-BSO)Cl] [Os-LBSO], the “G1 arrest (percentage of cells in G1)” value [1] was “significantly increased”, the “Apoptosis / mode of cell death vs untreated cells” value [2] was “no significant differences” and the “Lowering of intracellular GSH level” value [3] was “ca. 50%”. For the same substance, the “Hydrolysis” value [4] was “does not readily hydrolyze”.
